Measurements published in US9309242B2, “Substituted pyrido[2,3-b]pyrazines as FGFR kinase inhibitors” (priority 2011, dated 2016).

Key:
FGFR1 (h) = FGFR1 (h) (Homo sapiens, UniProt P11362); test: FGFR1 (enzymatic assay), TR-FRET; format: biochemical; conditions: read-out: FGFR 1 pIC50 (converted)
FGFR3 (h) = FGFR3 (h) (Homo sapiens, UniProt P22607); test: FGFR3 (enzymatic assay), TR-FRET; format: biochemical; conditions: read-out: FGFR 3 pIC50 (converted)
Source text: Time-Resolved Fluorescence Resonance Energy Transfer (TR-FRET) signal (ex340 nm.

FGFR4 (h) = FGFR4 (h) (Homo sapiens, UniProt P22455); test: FGFR4 (enzymatic assay), TR-FRET; format: biochemical; conditions: FGFR 4 pIC50, enzymatic assay
KDR (h) = KDR (h) (Homo sapiens, UniProt P35968); test: KDR (VEGFR2) (enzymatic assay), TR-FRET; format: biochemical; conditions: read-out: VEGFR 2 (KDR) pIC50 (converted)
How it was run: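 First, kinase (150 ng/ml), Btn-Flt3 (500 nM), ATP (3 μM) and compound (1% DMSO) react 120 min at RT in pH 7.5 HEPES/6 mM MnCl2. Next, EDTA with Eu-anti-P-Tyr and SA-XL-665 stops it for 60 min. Finally, TR-FRET is read as RFU.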

[1] = biological target: T1, Ba/F3-FGFR1-transfected cells (Homo sapiens, UniProt P11362); test: Ba/F3-FGFR1 (minus IL3) cellular proliferation assay, Alamar Blue; format: cell-based
T1 construct: BAF3-FGFR1 (MIN IL3) pIC50; other: minus IL3
How it was run: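 Ba/F3-FGFR1 cells, 20000/well, RPMI-1640 + 10% FBS + 2 mM L-Gln; compound in DMSO; 24 h, 37 °C, 5% CO2; Alamar Blue 4 h; RFU ex 540/em 590.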

[2] = test system: Ba/F3-FGFR1-transfected cells; test: Ba/F3-FGFR1 (plus IL3) cellular proliferation assay, counterscreen with 10 ng/ml murine IL3; format: cell-based; conditions: plus IL3 (10 ng/ml murine IL3, counterscreen); read-out: BAF3-FGFR1 (PLUS IL3) pIC50 (converted)
How it was run: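 Ba/F3-FGFR1 cells (20000/well) in RPMI-1640 with 10% FBS exposed to compound for 24 h at 37° C., 5% CO2, then Alamar Blue (resazurin) added for 4 h; fluorescence read at ex 540/em 590 nm. Counterscreen run identically with 10 ng/ml murine IL3.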

[3] = biological target: T2, Ba/F3-FGFR3-transfected cells (Homo sapiens, UniProt P22607); test: Ba/F3-FGFR3 (minus IL3) cellular proliferation assay, Alamar Blue; format: cell-based
T2 construct: BAF3-FGFR3 (MIN IL3) pIC50; other: minus IL3
How it was run: (§1)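 FGFR3-Ba/F3, 20000 cells/well, RPMI-1640 + 10% FBS, no phenol red; cpd in DMSO; 24 h, 37° C/5% CO2. Alamar Blue 4 h, RFU ex540/em590. Counterscreen: + murine IL3 10 ng/ml.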

[4] = test system: Ba/F3-FGFR3-transfected cells; test: Ba/F3-FGFR3 (plus IL3) cellular proliferation assay, counterscreen with 10 ng/ml murine IL3; format: cell-based; conditions: plus IL3 (10 ng/ml murine IL3, counterscreen); read-out: BAF3-FGFR3 (PLUS IL3) pIC50 (converted)
How it was run: as §1

[5] = biological target: Ba/F3-FGFR4-transfected cells (Homo sapiens, UniProt P22455); test: Ba/F3-FGFR4 cellular proliferation assay, Alamar Blue; format: cell-based
How it was run: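 Proliferation of Ba/F3-FGFR4-transfected cells is gauged by Alamar Blue (resazurin) fluorescence after 24 hours of compound treatment in phenol red free RPMI-1640 with 10% FBS.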

Sequence of Ba/F3-FGFR4-transfected cells (P22455 whole entry, change not shown): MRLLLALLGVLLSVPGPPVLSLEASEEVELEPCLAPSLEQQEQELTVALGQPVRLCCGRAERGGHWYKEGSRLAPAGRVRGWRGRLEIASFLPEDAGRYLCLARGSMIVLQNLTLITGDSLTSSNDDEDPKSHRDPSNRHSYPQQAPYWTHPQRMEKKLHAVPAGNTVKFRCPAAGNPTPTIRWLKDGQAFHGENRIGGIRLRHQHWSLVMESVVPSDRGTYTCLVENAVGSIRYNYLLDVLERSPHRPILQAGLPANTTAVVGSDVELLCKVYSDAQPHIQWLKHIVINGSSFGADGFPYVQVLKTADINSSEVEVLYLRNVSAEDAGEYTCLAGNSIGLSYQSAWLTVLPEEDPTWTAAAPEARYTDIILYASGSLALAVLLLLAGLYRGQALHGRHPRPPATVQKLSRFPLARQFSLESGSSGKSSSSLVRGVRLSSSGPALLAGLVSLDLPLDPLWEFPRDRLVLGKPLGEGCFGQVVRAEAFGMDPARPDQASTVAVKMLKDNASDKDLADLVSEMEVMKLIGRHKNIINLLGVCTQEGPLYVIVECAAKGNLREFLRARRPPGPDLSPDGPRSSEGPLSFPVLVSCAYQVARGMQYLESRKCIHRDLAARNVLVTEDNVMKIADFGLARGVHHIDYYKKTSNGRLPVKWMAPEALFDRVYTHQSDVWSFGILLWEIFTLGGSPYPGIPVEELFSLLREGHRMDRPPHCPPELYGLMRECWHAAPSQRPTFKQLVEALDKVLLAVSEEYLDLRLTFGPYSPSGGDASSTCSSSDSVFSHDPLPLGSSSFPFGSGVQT
Sequence of FGFR1 (h) (P11362 22-822): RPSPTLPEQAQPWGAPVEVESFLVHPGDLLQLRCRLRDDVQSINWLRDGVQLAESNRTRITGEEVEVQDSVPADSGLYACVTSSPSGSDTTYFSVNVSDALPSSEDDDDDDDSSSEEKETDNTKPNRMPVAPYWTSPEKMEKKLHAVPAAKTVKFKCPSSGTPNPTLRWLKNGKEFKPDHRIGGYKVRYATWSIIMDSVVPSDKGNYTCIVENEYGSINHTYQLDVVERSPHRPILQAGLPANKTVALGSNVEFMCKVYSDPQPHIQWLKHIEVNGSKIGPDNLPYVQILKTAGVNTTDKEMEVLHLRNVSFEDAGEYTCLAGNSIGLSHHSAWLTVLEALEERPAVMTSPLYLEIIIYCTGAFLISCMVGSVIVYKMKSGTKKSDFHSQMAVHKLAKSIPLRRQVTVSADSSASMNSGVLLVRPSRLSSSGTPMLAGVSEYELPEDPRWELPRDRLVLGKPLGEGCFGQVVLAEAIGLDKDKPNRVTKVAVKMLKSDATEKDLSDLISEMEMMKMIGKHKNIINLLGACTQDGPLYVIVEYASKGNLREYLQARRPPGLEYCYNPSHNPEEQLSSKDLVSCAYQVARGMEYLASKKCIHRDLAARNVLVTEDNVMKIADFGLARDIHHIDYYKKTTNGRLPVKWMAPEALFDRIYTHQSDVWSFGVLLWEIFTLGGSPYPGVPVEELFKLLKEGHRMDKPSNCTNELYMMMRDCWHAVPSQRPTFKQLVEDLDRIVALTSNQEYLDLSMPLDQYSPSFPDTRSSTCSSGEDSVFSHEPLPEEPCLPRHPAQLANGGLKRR
Sequence of FGFR3 (h) (P22607 23-806): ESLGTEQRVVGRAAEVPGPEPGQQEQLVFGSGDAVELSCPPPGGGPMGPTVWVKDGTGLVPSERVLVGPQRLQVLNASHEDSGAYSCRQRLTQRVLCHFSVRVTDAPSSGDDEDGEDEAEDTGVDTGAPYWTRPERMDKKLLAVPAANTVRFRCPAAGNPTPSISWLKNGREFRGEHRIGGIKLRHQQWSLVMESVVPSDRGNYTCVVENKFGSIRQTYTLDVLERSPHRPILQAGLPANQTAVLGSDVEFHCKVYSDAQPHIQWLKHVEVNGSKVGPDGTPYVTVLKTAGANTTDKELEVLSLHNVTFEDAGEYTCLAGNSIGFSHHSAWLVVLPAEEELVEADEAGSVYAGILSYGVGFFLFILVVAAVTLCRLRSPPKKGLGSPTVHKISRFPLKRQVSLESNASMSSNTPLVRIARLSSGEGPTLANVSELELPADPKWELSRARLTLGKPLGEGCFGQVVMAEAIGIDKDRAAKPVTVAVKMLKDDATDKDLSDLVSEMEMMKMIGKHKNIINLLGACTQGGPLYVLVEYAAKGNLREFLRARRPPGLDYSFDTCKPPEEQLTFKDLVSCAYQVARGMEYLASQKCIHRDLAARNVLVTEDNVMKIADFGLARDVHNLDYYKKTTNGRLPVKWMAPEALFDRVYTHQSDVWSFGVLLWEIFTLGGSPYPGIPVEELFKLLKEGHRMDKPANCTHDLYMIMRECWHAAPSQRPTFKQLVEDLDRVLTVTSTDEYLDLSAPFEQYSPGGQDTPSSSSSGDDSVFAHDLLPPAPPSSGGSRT
Sequence of FGFR4 (h) (P22455 22-802): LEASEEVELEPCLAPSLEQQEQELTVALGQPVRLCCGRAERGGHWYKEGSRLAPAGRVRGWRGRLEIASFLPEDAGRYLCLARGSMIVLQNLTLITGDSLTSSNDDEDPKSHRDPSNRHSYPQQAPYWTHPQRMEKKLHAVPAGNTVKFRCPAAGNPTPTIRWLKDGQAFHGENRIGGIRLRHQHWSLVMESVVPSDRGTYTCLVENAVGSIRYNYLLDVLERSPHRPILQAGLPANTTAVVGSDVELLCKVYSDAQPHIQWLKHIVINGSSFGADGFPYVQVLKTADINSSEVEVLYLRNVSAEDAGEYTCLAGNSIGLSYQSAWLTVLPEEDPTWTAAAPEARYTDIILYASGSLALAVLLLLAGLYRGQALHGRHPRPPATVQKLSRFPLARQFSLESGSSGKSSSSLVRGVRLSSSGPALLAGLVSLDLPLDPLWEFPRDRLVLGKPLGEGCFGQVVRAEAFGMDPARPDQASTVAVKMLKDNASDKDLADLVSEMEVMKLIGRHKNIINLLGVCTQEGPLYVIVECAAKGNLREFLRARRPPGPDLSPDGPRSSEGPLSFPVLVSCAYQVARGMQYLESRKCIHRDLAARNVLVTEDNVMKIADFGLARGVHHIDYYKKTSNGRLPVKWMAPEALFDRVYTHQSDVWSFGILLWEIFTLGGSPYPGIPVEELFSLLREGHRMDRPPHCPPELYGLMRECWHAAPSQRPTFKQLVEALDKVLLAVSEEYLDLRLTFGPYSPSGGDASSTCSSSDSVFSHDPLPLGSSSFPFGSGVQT
T1 sequence (P11362 whole entry, change not shown): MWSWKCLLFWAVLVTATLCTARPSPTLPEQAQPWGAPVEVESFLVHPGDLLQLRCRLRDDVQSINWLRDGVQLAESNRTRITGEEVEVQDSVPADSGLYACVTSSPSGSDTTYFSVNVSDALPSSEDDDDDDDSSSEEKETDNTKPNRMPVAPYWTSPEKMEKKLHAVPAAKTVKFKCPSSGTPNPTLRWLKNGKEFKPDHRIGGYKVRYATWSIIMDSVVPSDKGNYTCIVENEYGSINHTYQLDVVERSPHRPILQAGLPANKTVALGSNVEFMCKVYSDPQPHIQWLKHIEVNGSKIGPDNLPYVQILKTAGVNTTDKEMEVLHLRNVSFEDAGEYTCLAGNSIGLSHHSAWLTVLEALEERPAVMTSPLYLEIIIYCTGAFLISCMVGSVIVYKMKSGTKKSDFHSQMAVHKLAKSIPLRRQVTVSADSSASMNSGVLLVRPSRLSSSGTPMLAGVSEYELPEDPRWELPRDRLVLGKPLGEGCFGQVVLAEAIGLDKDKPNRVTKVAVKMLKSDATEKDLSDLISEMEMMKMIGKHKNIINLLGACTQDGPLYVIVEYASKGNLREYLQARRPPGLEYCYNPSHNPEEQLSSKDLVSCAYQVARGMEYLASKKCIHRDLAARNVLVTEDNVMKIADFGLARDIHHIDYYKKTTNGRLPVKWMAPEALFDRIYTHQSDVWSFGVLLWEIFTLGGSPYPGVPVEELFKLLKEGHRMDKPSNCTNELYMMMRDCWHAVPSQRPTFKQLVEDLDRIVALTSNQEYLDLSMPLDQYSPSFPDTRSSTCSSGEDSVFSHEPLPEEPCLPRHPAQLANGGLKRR
T2 sequence (P22607 whole entry, change not shown): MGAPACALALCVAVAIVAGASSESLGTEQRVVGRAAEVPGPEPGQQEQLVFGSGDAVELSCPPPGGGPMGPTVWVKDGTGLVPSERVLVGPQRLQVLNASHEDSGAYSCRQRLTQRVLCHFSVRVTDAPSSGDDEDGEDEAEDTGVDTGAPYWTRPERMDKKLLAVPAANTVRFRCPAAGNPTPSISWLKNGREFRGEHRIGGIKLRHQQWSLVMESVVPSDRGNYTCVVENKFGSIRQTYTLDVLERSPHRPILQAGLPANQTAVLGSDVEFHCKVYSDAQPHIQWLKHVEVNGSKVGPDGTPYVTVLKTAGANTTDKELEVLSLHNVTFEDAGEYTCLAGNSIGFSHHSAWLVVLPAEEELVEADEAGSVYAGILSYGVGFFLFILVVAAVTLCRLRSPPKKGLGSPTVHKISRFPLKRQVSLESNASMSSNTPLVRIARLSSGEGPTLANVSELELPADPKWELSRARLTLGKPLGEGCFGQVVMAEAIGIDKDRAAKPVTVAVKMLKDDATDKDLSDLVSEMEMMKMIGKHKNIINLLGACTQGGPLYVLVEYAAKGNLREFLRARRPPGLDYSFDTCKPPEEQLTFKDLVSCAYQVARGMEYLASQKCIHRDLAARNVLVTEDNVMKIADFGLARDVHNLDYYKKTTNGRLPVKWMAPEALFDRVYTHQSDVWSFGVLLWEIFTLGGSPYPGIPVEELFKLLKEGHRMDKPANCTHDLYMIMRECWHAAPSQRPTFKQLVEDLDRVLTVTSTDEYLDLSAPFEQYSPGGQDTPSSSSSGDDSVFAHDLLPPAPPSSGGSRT

Row | SMILES | IC50 (FGFR1 (h)) [nM] | IC50 (FGFR3 (h)) [nM] | IC50 (FGFR4 (h)) [nM] | IC50 (KDR (h)) [nM] | BAF3-FGFR1 (MIN IL3) pIC50 [1] | IC50 [2] [nM] | BAF3-FGFR3 (MIN IL3) pIC50 [3] | IC50 [4] [nM] | BAF3-FGFR4 pIC50 [5]
1 | COc1cc(O)c(F)c(N(Cc2ncc[nH]2)c2ccc3ncc(-c4cnn(C)c4)nc3n2)c1 [Compound 96] | 0.741 | 1.07 | 1.78 | 11.5 | 8.08 | > 10000 | ~8.09 | > 10000 | 7.16
2 | COc1cc(OC)cc(N(Cc2ncc[nH]2)c2ccc3ncc(-c4cn[nH]c4)nc3n2)c1 [Compound 141] | 0.603 | 0.457 | 0.603 | 12 | 8.27 | > 10000 | ~8.13 | > 10000 | 7.40
3 | COc1cc(OC)cc(N(CC2COC2)c2ccc3ncc(-c4cnn(C)c4)nc3n2)c1 [Compound 142] | 16.2 | 5.75 | 30.2 | 74.1 | 5.49 | > 10000 | 5.30 | > 10000 | 5.10
4 | COc1cc(/N=c2\ccc3ncc(-c4cnn(C)c4)nc3n2CC2COC2)c(F)c(OC)c1 [Compound 143] | 1.26 | 0.759 | 1.02 | 5.01 | 5.48 | > 10000 | 5.42 | > 10000 | 5.29
5 | COc1cc(OC)c(F)c(N(CC2COC2)c2ccc3ncc(-c4cnn(C)c4)nc3n2)c1 [Compound 144] | 3.89 | 1.74 | 5.25 | 22.9 | 6.44 | > 10000 | 6.33 | > 10000 | 6.13
6 | COc1cc(OC)c(F)c(N(Cc2nccn2CCO)c2ccc3ncc(-c4cnn(C)c4)nc3n2)c1 [Compound 145] | 3.24 | 4.68 | 10.5 | 25.7 | 7.26 | > 10000 | 7.04 | > 10000 | 6.61
7 | COc1cc(OC)cc(N(CCN2CCOCC2)c2ccc3ncc(-c4cnn(C)c4)nc3n2)c1 [Compound 146] | 6.76 | 4.9 | 17.8 | 41.7 | 6.87 | > 10000 | ~7.14 | > 10000 | ~6.58
8 | COc1cc(/N=c2\ccc3ncc(-c4cnn(C)c4)nc3n2CCN2CCOCC2)cc(OC)c1 [Compound 147] | 1.51 | 1.62 | 3.24 | 5.62 | 7.28 | > 10000 | 7.23 | > 10000 | 6.85
9 | COc1cc(/N=c2\ccc3ncc(-c4cnn(C)c4)nc3n2CCN2CCOCC2)c(F)c(OC)c1 [Compound 148] | 1.7 | 1.26 | 1.62 | 5.01 | 7.58 | > 10000 | 7.21 | > 10000 | 7.21
10 | COc1cc(OC)c(F)c(N(CCN2CCOCC2)c2ccc3ncc(-c4cnn(C)c4)nc3n2)c1 [Compound 149] | 2.45 | 2.63 | 5.13 | 15.5 | 7.45 | > 10000 | ~7.66 | > 10000 | 7.12
